Assay results taken from publication PMC7460560, “Discovery of Novel Agents on Spindle Assembly Checkpoint to Sensitize Vinorelbine-Induced Mitotic Cell Death against Human Non-Small Cell Lung Cancers” (International Journal of Molecular Sciences, 2020).

Key:
tubulin = molecular target: T1, tubulin (Sus scrofa, UniProt P02550+P02554); assay: in vitro pure tubulin polymerization assay (Cytoskeleton kit, […] nm), […] inhibition at […]; assay type: biochemical; conditions: read-out: % inhibition at 1000 nM
T1 construct: with alpha-tubulin
T1 sequence (P02554 whole entry): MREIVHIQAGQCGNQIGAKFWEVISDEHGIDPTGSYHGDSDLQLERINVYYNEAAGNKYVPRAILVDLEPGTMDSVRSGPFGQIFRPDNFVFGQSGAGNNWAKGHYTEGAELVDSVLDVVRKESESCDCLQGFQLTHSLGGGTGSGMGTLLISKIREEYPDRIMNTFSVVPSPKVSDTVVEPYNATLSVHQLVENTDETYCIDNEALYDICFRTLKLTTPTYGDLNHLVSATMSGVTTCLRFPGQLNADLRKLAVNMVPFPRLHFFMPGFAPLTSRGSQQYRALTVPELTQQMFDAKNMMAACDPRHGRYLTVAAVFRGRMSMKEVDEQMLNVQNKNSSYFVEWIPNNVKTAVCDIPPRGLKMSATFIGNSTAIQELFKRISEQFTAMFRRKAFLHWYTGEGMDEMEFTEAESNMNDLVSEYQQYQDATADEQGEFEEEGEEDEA
T1 sequence (P02550 whole entry): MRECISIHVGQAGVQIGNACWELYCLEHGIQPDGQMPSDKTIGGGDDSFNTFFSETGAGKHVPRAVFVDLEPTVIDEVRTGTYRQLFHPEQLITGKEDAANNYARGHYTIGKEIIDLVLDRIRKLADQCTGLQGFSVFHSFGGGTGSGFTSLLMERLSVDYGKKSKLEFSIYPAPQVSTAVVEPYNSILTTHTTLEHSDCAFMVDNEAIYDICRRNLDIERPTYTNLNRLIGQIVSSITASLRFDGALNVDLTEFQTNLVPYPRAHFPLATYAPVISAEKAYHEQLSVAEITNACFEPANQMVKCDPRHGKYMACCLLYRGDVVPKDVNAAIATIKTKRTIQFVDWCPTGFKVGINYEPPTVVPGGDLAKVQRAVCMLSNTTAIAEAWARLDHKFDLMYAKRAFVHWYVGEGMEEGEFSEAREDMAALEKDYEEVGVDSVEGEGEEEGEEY

[1] = molecular target: T2, PDE5A1 (phosphodiesterase type 5) (Homo sapiens, UniProt O76074); assay: PDE5A1 assay kit (BPS Bioscience), fluorescence polarization with FAM-cyclic-3', […]'-GMP; assay type: biochemical
T2 construct: gene PDE5A

SMILES	inhibition at 1 µM (tubulin)	IC50 [1]
CCC1=C[C@@H]2CN(C1)Cc1c([nH]c3ccccc13)[C@@](C(=O)OC)(c1cc3c(cc1OC)N(C)[C@H]1[C@@](O)(C(=O)OC)[C@H](OC(C)=O)[C@]4(CC)C=CCN5CC[C@]31[C@@H]54)C2 [vinorelbine]	16.7%	
CCCn1nnc2c(OC)nc(-c3cc(S(=O)(=O)N4CCN(C)CC4)ccc3OC)nc21 [YL-9]		632 nM
